These results are taken from patent US8802104B2, “Parathyroid hormone receptor activation and stem and progenitor cell expansion” (The General Hospital Corporation, priority 2002, dated 2014).

The subject of data set [1] is C57Bl/6 stroma and hematopoietic cells (LTC-IC). Description: LTC-IC assay on wild-type stroma, in vitro treatment with PTH. The class given is cell-based, mouse. Here is the method: (§1) Murine bone marrow stromal cells from confluent cultures were irradiated (15Gy) and plated at a concentration of 20,000 cells/well in 96-well plates in long-term culture medium. Cells were then seeded into the plates in two-fold serial limiting dilutions and cultured at 33° C./5% CO2 in a humidified atmosphere. Cultures were maintained for 5 weeks, changing half of the medium in the wells weekly. Following this, the medium was replaced with methylcellulose containing medium supplemented with recombinant cytokines as described above, then scored for colony growth ten days following the addition of the medium.
LTC-IC assays were performed using wild-type stroma and hematopoietic cells. […] After fixation in 10% Neutral Formalin Buffer for 30 minutes at room temperature, alkaline phosphatase activity was determined histochemically by incubation for 45 minutes at RT with a mixture of 0.1 mg/ml naphthol AS-MX phosphate (Sigma), 0.5% N,N-dimethylformamide, 0.6 mg/ml red violet LB salt (Sigma) in 0.1 M Tris-HCl (pH 8.5). Alkaline phosphatase positive cells were counted at day 10 of culture, when the cultures were subconfluent and individual cells could be identified. […]

Data set [2] has as its system primary murine stromal cell cultures. In words: Alkaline phosphatase staining of primary stromal cell cultures. The class given is cell-based, mouse. As to conditions: after 14 days, PTH vs vehicle, FIG. 5b. The procedure: LTC-IC assays were performed using wild-type stroma and hematopoietic cells. Rat PTH (1-34) (Bachem, Torrance, Calif.) or vehicle was added to each media change either during stroma establishment and/or during culture maintenance to a final concentration of 10^−7 M. Medium was changed every three days for two weeks or until stromal layers became confluent. For alkaline phosphatase staining, primary mononuclear cells obtained as described above from wild-type and or transgenic littermates were then cultured in 24-well plates at an initial concentration of 5×10^6 cells/ml. At 10 or 14 days after seeding, medium was suctioned off, and the adherent cells were gently rinsed twice in PBS. After fixation in 10% Neutral Formalin Buffer for 30 minutes at room temperature, alkaline phosphatase activity was determined histochemically by incubation for 45 minutes at RT with a mixture of 0.1 mg/ml naphthol AS-MX phosphate (Sigma), 0.5% N,N-dimethylformamide, 0.6 mg/ml red violet LB salt (Sigma) in 0.1 M Tris-HCl (pH 8.5). Alkaline phosphatase positive cells were counted at day 10 of culture, when the cultures were subconfluent and individual cells could be identified. For inhibition of γ-secretase activity, 30 μM of γ-secretase inhibitor II (Calbiochem) dissolved in DMSO was added to the long-term culture medium and LTC-IC assays were performed as described. […]

For data set [3], the system named is hematopoietic stem cells (LTC-ICs) in the bone marrow. In words: In vivo PTH administration: LTC-IC frequency in bone marrow. Details: species or system C57Bl/6 mice. Here is the method: as §1
For PTH administration, 6-8 week old wild type C57/B male mice were used. […] Control mice (n=4) were injected with an equivalent volume of vehicle. At the end of the treatment period, ionized serum calcium was measured by the Ciba/Corning 634 Ca^++/pH analyzer, and, after euthanasia, the hind limbs and forelimbs were dissected and utilized for cytologic and histologic analysis.
As treatment of stromal cells with PTH led to an increase in the ability of the stromal cell population to support hematopoietic stem cells, it was investigated whether these effects could be recapitulated in vivo. Wild-type C57Bl/6 mice were injected daily with PTH using an intermittent dosing schedule known to increase osteoblasts, and the frequencies of LTC-ICs in the bone marrow were measured. […] To further define that functional stem cells were increased after PTH treatment, an in vivo assay of competitive transplantation into secondary recipients was used and a >2-fold increase in HSCs was documented (P=<0.05, FIG. 5f). […] Therefore, pharmacological activation of PPR increased stem cell number, but appeared to do so without a broad hematopoietic cell expansion.

Data set [4] concerns HSCs (CD45.2+ cells in bone marrow). Description: Competitive transplantation into secondary recipients. The class given is in vivo. As to conditions: donor mice PTH treated four weeks; read 6 weeks after transplant; P<0.05, FIG. 5f. Here is the method:
For the competitive transplant studies, 4×10^5 BM MNCs, obtained from CD45.1^+ B6.SJL (Jackson Laboratories, Bar Harbor, Me.) mice were mixed with 2×10^5 cells from mock injected or PTH injected CD45.2^+ C57Bl/6 mice. Recipient B6.SJL mice that had been lethally irradiated 24 hours previously with 10Gy of radiation (^137Cs source) were injected with cells. After 6 weeks, the mice were euthanized with CO2, the BM was removed and flushed with fully supplemented Iscove's Medium. The relative contribution of engraftment from the different cell sources was assessed by flow cytometry utilizing anti-CD45.1 and anti-CD45.2 antibodies (Pharmingen, San Diego, Calif.). To assess the effects of PTH administration post transplantation, recipient C57Bl/6 mice were lethally irradiated and then injected with 2×10^5 BM MNCs from a donor B6.SJL mouse. Twenty-four hours following the injection of the cells, mice were injected with PTH or mock injected as described above for four weeks.
As treatment of stromal cells with PTH led to an increase in the ability of the stromal cell population to support hematopoietic stem cells, it was investigated whether these effects could be recapitulated in vivo. Wild-type C57Bl/6 mice were injected daily with PTH using an intermittent dosing schedule known to increase osteoblasts, and the frequencies of LTC-ICs in the bone marrow were measured. […]

Details of data set [5]: species or system C57Bl/6 mice. As to conditions: mouse, in vivo. Here is the method:
For PTH administration, 6-8 week old wild type C57/B male mice were used. Rat PTH (1-34) (80 μg/Kg of body weight) was injected intraperitoneally 5×/week for 4 weeks (n=5). Control mice (n=4) were injected with an equivalent volume of vehicle. At the end of the treatment period, ionized serum calcium was measured by the Ciba/Corning 634 Ca^++/pH analyzer, and, after euthanasia, the hind limbs and forelimbs were dissected and utilized for cytologic and histologic analysis.

“Also recorded” adds a separate entry of the source. Bounds are passed on as bounds.

Rat PTH (1-34): in data set [1] (PTH 10^-7 M present during expansion of the stromal population, P=0.004, FIG. 5a), the “ability of stroma to support LTC-ICs” value is given as “enhanced the ability of the stroma to support LTC-ICs; also recorded: increasing LTC-IC”. For the same substance, the LTC-IC support result in data set [1] (stromal cells expanded in the absence of PTH, or PTH added at the same time as the hematopoietic cells) is “the effect was not seen”. Further, in data set [2], the “alkaline phosphatase positive (osteoblastic) cells” value is reported as “an increase in alkaline positive cells”. Moreover, the “hematopoietic stem cells over mock injected mice” value in data set [3] (four weeks PTH treatment, 80 μg/Kg i.p. 5x/week) is on record as “significant increase in the hematopoietic stem cells”. In addition, in data set [3] (four weeks PTH, P<0.005, FIG. 5e), the “limit dilution LTC-IC assay, stem-like cells” value is “an increase in stem-like cells”. Further, the “hematopoietic stem cell population (frequencies of LTC-ICs in the bone marrow)” value in data set [3] (two week PTH treatment, 80 μg/Kg i.p.) was “did not result in any significant increase”. Besides, in data set [4], the “increase in HSCs, competitive transplantation” value is above 2 fold. For the same substance, the “hypercalcemia by serum calcium measurements” value in data set [5] is listed as “no evidence of hypercalcemia”.
